Tests used:
[1] = target: T1, ATP-dependent translocase ABCB1 (Mus musculus, UniProt P06795); assay: Inhibition of P-glycoprotein in MDR mouse T lymphoma cells using rhodamine 123 assessed as ratio of fluorescent uptake relative to untreated control at 1 uM in MDR reversal assay by flow cytometry; assay type: cell-based
[2] = target: T1, ATP-dependent translocase ABCB1; assay: Inhibition of P-glycoprotein in MDR mouse T lymphoma cells using rhodamine 123 assessed as ratio of fluorescent uptake relative to untreated control at 10 uM in MDR reversal assay by flow cytometry; assay type: cell-based

T1 sequence (P06795 whole entry): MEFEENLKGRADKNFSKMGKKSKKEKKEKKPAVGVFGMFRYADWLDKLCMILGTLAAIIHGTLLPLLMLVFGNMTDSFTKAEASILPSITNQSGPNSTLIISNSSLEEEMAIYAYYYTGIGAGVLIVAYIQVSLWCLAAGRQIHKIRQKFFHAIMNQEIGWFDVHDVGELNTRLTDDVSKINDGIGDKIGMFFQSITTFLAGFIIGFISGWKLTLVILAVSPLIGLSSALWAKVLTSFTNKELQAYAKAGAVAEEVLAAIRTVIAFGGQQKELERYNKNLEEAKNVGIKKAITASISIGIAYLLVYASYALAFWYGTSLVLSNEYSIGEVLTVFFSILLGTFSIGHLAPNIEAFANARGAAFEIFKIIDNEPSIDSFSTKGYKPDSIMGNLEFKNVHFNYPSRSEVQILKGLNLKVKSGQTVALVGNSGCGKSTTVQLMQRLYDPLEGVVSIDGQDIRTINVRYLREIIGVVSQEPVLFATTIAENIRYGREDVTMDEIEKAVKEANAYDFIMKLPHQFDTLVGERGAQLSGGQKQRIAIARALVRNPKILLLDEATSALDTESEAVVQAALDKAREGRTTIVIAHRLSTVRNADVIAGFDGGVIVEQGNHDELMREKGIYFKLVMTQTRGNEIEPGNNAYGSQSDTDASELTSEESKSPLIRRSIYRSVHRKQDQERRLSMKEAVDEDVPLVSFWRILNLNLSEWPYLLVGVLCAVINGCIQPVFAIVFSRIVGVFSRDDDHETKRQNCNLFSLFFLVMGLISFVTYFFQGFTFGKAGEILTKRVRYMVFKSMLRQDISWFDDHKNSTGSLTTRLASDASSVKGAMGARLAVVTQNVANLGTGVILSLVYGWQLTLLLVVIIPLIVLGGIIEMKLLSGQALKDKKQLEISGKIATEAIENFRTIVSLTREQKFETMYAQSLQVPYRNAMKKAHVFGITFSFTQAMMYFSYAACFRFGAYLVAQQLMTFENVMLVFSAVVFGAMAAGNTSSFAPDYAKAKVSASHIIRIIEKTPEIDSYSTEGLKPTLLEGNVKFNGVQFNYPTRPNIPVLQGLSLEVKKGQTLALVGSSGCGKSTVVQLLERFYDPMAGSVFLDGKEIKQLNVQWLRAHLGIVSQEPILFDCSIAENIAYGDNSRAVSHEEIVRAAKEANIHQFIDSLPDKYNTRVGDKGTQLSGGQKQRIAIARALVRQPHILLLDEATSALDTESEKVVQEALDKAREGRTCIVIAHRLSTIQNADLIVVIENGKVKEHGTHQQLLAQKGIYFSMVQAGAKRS

Row | Compound | Activity [1] | Activity [2]
1 | CC(=O)C1=CN(C(=O)Oc2ccccc2)C=CC1c1ccc(C)cc1 (configuration not stated) | 1.41 | 3.58
2 | COc1ccc(C2C=CN(C(=O)Oc3ccccc3)C=C2C(C)=O)cc1 (configuration not stated) | 1.81 | 7.1
3 | CCOC(=O)C1=CN(C(=O)Oc2ccccc2)C=CC1c1ccc(OC)cc1 (configuration not stated) | 1.3 | 19.87
4 | CCOC(=O)C1=CN(C(=O)Oc2ccccc2)C=CC1c1ccc(C)cc1 (configuration not stated) | 1.04 | 3.09
5 | CCOC(=O)C1=CN(C(=O)Oc2ccccc2)C=CC1c1ccccc1OC (configuration not stated) | 1.6 | 39.98
6 | COc1ccccc1C1C=CN(C(=O)Oc2ccccc2)C=C1C(C)=O (configuration not stated) | 1.01 | 5.15

— ChEMBL document CHEMBL1143712, “Structure-activity relationships of novel N-acyloxy-1,4-dihydropyridines as P-glycoprotein inhibitors” (Bioorg Med Chem, 2007)
